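96-well plates; 48 h exposure; 5 concentrations. Endpoints by linear interpolation between flanking doses. Not reached: highest tested concentration assigned. GI50 marks 50% less growth. TGI: concentration producing complete growth inhibition.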
Columns and labels:
Test in all cases: growth of human tumour cells (NCI), 48 h
ACHN renal = test system: ACHN renal
HCC-2998 colon = test system: HCC-2998 colon
HCT-15 colon = test system: HCT-15 colon
MOLT-4 leukemia = test system: MOLT-4 leukemia
OVCAR-8 ovarian = test system: OVCAR-8 ovarian
SF-295 CNS = test system: SF-295 CNS
SN12C renal = test system: SN12C renal
SNB-75 CNS = test system: SNB-75 CNS
UACC-62 melanoma = test system: UACC-62 melanoma
MALME-3M melanoma = test system: MALME-3M melanoma

Compound | TGI (ACHN renal) | TGI (HCC-2998 colon) | TGI (HCT-15 colon) | TGI (MOLT-4 leukemia) | TGI (OVCAR-8 ovarian) | TGI (SF-295 CNS) | TGI (SN12C renal) | TGI (SNB-75 CNS) | TGI (UACC-62 melanoma) | GI50 (ACHN renal) | GI50 (HCC-2998 colon) | GI50 (MALME-3M melanoma) | TGI (MALME-3M melanoma) | GI50 (MOLT-4 leukemia) | GI50 (OVCAR-8 ovarian) | GI50 (SF-295 CNS) | GI50 (SN12C renal) | GI50 (SNB-75 CNS) | GI50 (UACC-62 melanoma) | GI50 (HCT-15 colon)
C[N+](C)(C)CC1CCCCC1O (configuration not stated) | > 100 µM | > 100 µM | > 100 µM | > 100 µM | > 100 µM | > 100 µM | > 100 µM | > 100 µM | > 100 µM | – | – | – | – | – | – | – | – | – | – | –
C[C@H]1CCCC(O)C(O)[C@@H]2C[C@H](O[Si](C)(C)C(C)(C)C)C[C@H]2[C@H](O[Si](C)(C)C(C)(C)C)C(O)C(O)C(=O)O1 (some centres not stated) | 44.7 µM | 50.3 µM | – | > 100 µM | 37.3 µM | > 100 µM | > 100 µM | 18.1 µM | 48.8 µM | 14.4 µM | 17.5 µM | 11.7 µM | 35.2 µM | 66 µM | 13.5 µM | 32 µM | 34.6 µM | 4.3 µM | 18.5 µM | –
CSc1nnc(COc2ccc(Cl)cc2)o1 | > 100 µM | – | > 100 µM | – | > 100 µM | > 100 µM | > 100 µM | > 100 µM | > 100 µM | – | – | – | > 100 µM | – | – | – | – | – | – | –
Cn1c2c(c3ccccc31)CCN(CCN1CCN(c3cccc(Cl)c3)CC1)C2=O | > 100 µM | – | > 100 µM | > 100 µM | > 100 µM | – | > 100 µM | – | > 100 µM | – | – | – | – | – | – | – | – | – | – | –
COC(=O)C1(C(=O)OC)CC(=O)c2cc3c(cc2-c2c(cc(OC)c(OC)c2OC)C1)OCO3 | > 211 µM | > 211 µM | > 211 µM | > 211 µM | > 211 µM | > 211 µM | > 211 µM | – | > 211 µM | – | – | – | > 211 µM | – | – | – | – | – | – | –
Cc1ccc(NC(=O)c2cc(S(=O)(=O)N3C(=O)NC(=O)NS3(=O)=O)c(S)cc2Cl)cc1 | 83.8 µM | 60.5 µM | > 100 µM | 44 µM | 90.6 µM | 55 µM | > 100 µM | > 100 µM | 36 µM | 26.3 µM | 28.5 µM | – | – | 15.3 µM | 30.7 µM | 26.2 µM | 31.2 µM | 91.6 µM | 15.7 µM | 33.2 µM
COCCOCCOC1=CC(=O)c2c(O)ccc(O)c2C1=O | 2.99 µM | 3.51 µM | – | 5.56 µM | – | 3.23 µM | 3.8 µM | 3.28 µM | 3.34 µM | – | – | – | 0.399 µM | – | – | – | – | – | – | –
O=c1cc(/C=C/c2ccccc2)[nH]c2cc3c(cc12)OCO3 | 28.3 µM | 7.47 µM | 8.23 µM | 13.7 µM | 19.9 µM | 13.7 µM | 23.9 µM | 40.2 µM | 10.1 µM | – | – | – | – | – | – | 3 µM | – | – | – | –
O=S(=O)(NCCCNc1nccc(-c2c(-c3ccc(F)cc3)nc3sccn23)n1)c1ccc2ccccc2c1 | > 100 µM | 9.61 µM | > 100 µM | > 100 µM | > 100 µM | > 100 µM | > 100 µM | > 100 µM | > 100 µM | 3.42 µM | 3.37 µM | – | – | 4.52 µM | 4.63 µM | 6.86 µM | 4.69 µM | 5.22 µM | 4.6 µM | 3.26 µM
O=C(/C=C/c1ccccc1)CC(=O)CCC(=O)Nc1ccc(Cl)cc1 | > 100 µM | > 100 µM | > 100 µM | > 100 µM | > 100 µM | > 100 µM | > 100 µM | – | > 100 µM | – | – | – | > 100 µM | – | – | – | – | – | – | –
CCCCn1c(-c2ccc(C(=O)O/N=C(\N)c3ccc4c(c3)OCO4)cc2)nc(-c2ccccc2)c1-c1ccccc1 | 2.81 µM | 22.5 µM | > 100 µM | – | > 100 µM | 4.38 µM | 3.7 µM | 3.88 µM | 8.93 µM | 1.35 µM | 3.13 µM | 1.78 µM | 4.3 µM | – | 3.37 µM | 2.03 µM | 1.8 µM | 1.53 µM | 2.72 µM | 2.63 µM
CC(C)CCC1(CCN)C(=O)NC(=O)NC1=O | > 100 µM | – | > 100 µM | 72.2 µM | > 100 µM | > 100 µM | > 100 µM | > 100 µM | > 100 µM | – | – | – | > 100 µM | – | – | – | – | – | – | –
O=C(O)c1ccccc1/C=N/N=C1c2ccccc2-c2ccccc21 | > 100 µM | – | > 100 µM | 71 µM | > 100 µM | 61 µM | > 100 µM | – | > 100 µM | – | – | – | > 100 µM | – | – | – | – | – | – | –
C=C1C[C@@H]2CC[C@@]34C[C@H]5O[C@H]6[C@@H](O3)[C@H]3O[C@H](CC[C@@H]3O[C@H]6[C@@H]5O4)CC(=O)C[C@@H]3[C@@H](OC)[C@@H](C[C@H](O)CN)O[C@H]3C[C@H]3O[C@@H](CC[C@@H]1O2)C[C@@H](C)C3=C | > 100 µM | > 100 µM | > 100 µM | > 100 µM | > 100 µM | 0.839 µM | > 100 µM | > 100 µM | > 100 µM | 0.158 µM | < 0.01 µM | – | – | < 0.01 µM | < 0.0153 µM | < 0.01 µM | < 0.01 µM | < 0.01 µM | < 0.01 µM | 0.326 µM
Cc1ccccc1NC(=O)C1C(=O)N(c2ccccc2C)C(=O)/C1=N\NC(N)=S (configuration not stated) | > 100 µM | – | – | > 100 µM | – | > 100 µM | > 100 µM | > 100 µM | > 100 µM | – | – | – | > 100 µM | – | – | – | – | – | – | –
CC(=O)N1CCC2(c3ccccc3N(C(C)=O)C2c2ccc(O)cc2)C1C(=O)O (configuration not stated) | > 100 µM | > 100 µM | – | > 100 µM | > 100 µM | > 100 µM | > 100 µM | > 100 µM | > 100 µM | – | – | – | > 100 µM | – | – | – | – | – | – | –
O=[N+]([O-])c1ccc(Sc2c3ccccc3nc3cc(Cl)ccc23)cc1 | – | – | > 100 µM | > 100 µM | > 100 µM | > 100 µM | > 100 µM | > 100 µM | > 100 µM | – | – | > 100 µM | > 100 µM | – | > 100 µM | > 100 µM | > 100 µM | – | > 100 µM | > 100 µM
NC(=S)NN/C=C(\C=Nc1ccccc1)[N+](=O)[O-] | > 100 µM | – | > 100 µM | – | > 100 µM | > 100 µM | > 100 µM | > 100 µM | > 100 µM | – | – | – | > 100 µM | – | – | – | – | – | – | –
CCOC(=O)NC(=O)c1cn(CCN2CCN(C(=O)CCCCCCCCCCC(=O)N3CCN(CCn4cc(C(=O)NC(=O)OCC)c(=O)[nH]c4=O)CC3)CC2)c(=O)[nH]c1=O | > 100 µM | > 100 µM | – | > 100 µM | > 100 µM | > 100 µM | > 100 µM | > 100 µM | – | – | – | – | > 100 µM | – | – | – | – | – | – | –
COc1cnc2c(c1)C(=O)c1c-2n(CCCN2CCN(C)CC2)c(=O)c2cc([N+](=O)[O-])ccc12 | – | 27.7 µM | 1.26 µM | – | 6.96 µM | 0.483 µM | – | 2.95 µM | – | – | 14.6 µM | – | – | – | 1.19 µM | 0.0698 µM | – | 1.55 µM | – | 0.249 µM
Cc1ccccc1C(=O)N1CCN(C(=O)c2ccccc2C)CC1 | > 100 µM | > 100 µM | > 100 µM | > 100 µM | > 100 µM | > 100 µM | > 100 µM | > 100 µM | > 100 µM | – | – | – | – | – | – | – | – | – | – | –
COc1cc2c(cc1OC)C(C(=O)c1cccc(OC)c1OC)C(=O)N(C)CC2 (configuration not stated) | > 100 µM | – | > 100 µM | > 100 µM | > 100 µM | – | > 100 µM | > 100 µM | > 100 µM | – | – | – | > 100 µM | – | – | – | – | – | – | –
c1ccc(N2N=C(c3ccco3)CC2c2ccco2)cc1 (configuration not stated) | > 100 µM | – | > 100 µM | 52.4 µM | > 100 µM | > 100 µM | > 100 µM | > 100 µM | > 100 µM | – | – | – | > 100 µM | – | – | – | – | – | – | –
CCN(C(=O)/C=C/c1ccco1)c1ccccc1 | > 100 µM | > 100 µM | > 100 µM | > 100 µM | > 100 µM | > 100 µM | > 100 µM | > 100 µM | > 100 µM | – | – | – | – | – | – | – | – | – | – | –
CSC(=NCCc1c[nH]c2ccccc12)NC#N | > 100 µM | > 100 µM | > 100 µM | > 100 µM | > 100 µM | > 100 µM | > 100 µM | > 100 µM | > 100 µM | – | – | – | – | – | – | – | – | – | – | –
CCOC(=O)c1cc2c3c(c(O)c(OC)c2s1)N(C(=O)c1cc2c4c(c(O)c(OC)c2s1)N(C(C)=O)CC4)CC3 | > 100 µM | > 100 µM | – | – | > 100 µM | > 100 µM | > 100 µM | 67.1 µM | > 100 µM | – | – | – | > 100 µM | – | – | – | – | – | – | –
CC(=O)/C(=C/c1ccccc1F)C(=O)c1ccccc1 | > 100 µM | 45.1 µM | > 100 µM | 7.14 µM | 51 µM | > 100 µM | > 100 µM | > 100 µM | > 100 µM | – | – | – | – | – | – | – | – | – | – | –
CCNC(=O)COc1ccc(Cl)cc1Cl | > 100 µM | – | > 100 µM | > 100 µM | > 100 µM | > 100 µM | > 100 µM | > 100 µM | – | – | – | – | > 100 µM | – | – | – | – | – | – | –
CC1(C)CC2C(=O)c3ccccc3NC2c2ccccc21 (configuration not stated) | > 100 µM | > 100 µM | > 100 µM | – | > 100 µM | > 22.9 µM | > 100 µM | > 100 µM | > 100 µM | – | – | – | > 100 µM | – | – | – | – | – | – | –
Oc1ccccc1-c1nn(CNc2ccccc2Cl)c(=S)o1 | 38.5 µM | – | 38.7 µM | – | > 100 µM | > 100 µM | > 100 µM | – | > 100 µM | 16.8 µM | – | – | – | – | > 100 µM | 65.2 µM | 78.2 µM | – | 71.7 µM | 17.9 µM

— PubChem BioAssay (NCI)
